According to patent US20250282802A1, “P[…] AND METHODS” (priority 2020, published 2025):
Where two headings read alike, the source gives them in different places.

Columns and labels:
Escherichia coli WM6242 = experiment: Disk diffusion assay with phosphonate-specific bioassay strain E. coli WM6242; assay type: cell-based
Method: (§1) Antibacterial bioassays. Susceptibility testing for the ESKAPE pathogens and Salmonella enterica LT2 was performed using a Kirby-Bauer method as outlined by the Clinical and Laboratory Standards Institute (CLSI). For rich media bioassays, Mueller Hinton Broth 2 (MH-2, Sigma-Aldrich, 90922) was used for all strains except 1% BHI was supplemented for Enterococcus faecalis ATCC 19433. For minimal media bioassays, glucose-MOPS minimal medium was used. Briefly, overnight bacterial cultures were sub-cultured and inoculated into 5 mL top agar (0.7% agar) for final concentration of 5×10^5 CFU/mL. Then, 20 μL of a compound 2-fold dilution series (200, 100, 50, 25, 12.5, 6.25 μM in water) was spotted on 6 mm diameter blank paper discs (BD BBL™ 231039). Control discs received 20 μL of 50 mg/mL kanamycin. Plates were incubated at 35° C. for 20-24 hours. […] Sensitivity of the IPTG-inducible phosphonate uptake strain WM6242 to pantaphos was tested using a disk diffusion assay. Plates containing growth medium were overlayed with 5 mL of top agar (0.7% agar) inoculated with 100 μL (OD600=0.8) of the phosphonate-specific E. coli indicator strain (WM6242) with or without addition of 1 mM IPTG. WM6242 is engineered with an IPTG-inducible, non-specific phosphonate uptake system (phnCDE). After the seeded overlay solidified, 6 mm paper disks were spotted with 10 μL of a dilution series (200, 100, 50, 25, 12.5, 6.25 μM in water) of pantaphos and applied to the plates that were then incubated at 37° C. for 24 hours. Phosphonate-specific activity was queried by comparing sensitivity to that of 200 μM kanamycin and 200 μM fosfomycin.

T98G (glioblastoma) = experiment: Cytotoxicity profiling (Alamar Blue), T98G; assay type: cell-based, human
Method: (§2) FIG. 8. Cytotoxicity of pantaphos across various cancer cell lines. Assays were conducted as described (mBio. 2021 Feb. 2; 12(1):e03402-20), using the Alamar Blue method with 72-hour treatment using Raptinal ([…]) as Dead cell control; n=3. Cell seeding densities: CT26 (colon carcinoma) 2000 c/w; HOS (osteosarcoma) 2500 c/w; ES-2 (ovarian carcinoma), HCT-116 (colorectal carcinoma), A-549 (lung carcinoma), A-172 (glioblastoma), D54 (glioblastoma), U87 (glioblastoma), T98G (glioblastoma), SK-ML-28 (melanoma), MCF-7 (breast cancer), AM38 (glioblastoma) and MDA-MB-231 (breast cancer) 3000 c/w; U118MG (malignant glioma) 4000 c/w; HepG2 (liver cancer) 8000 c/w. c/w=cells per well. […]
(§3) Cell culture cytotoxicity screening. The compounds were evaluated for their ability to kill cancer cell lines in culture, using HOS (osteosarcoma); ES-2 (ovarian cancer); HCT 116 (colon cancer); A549 (lung carcinoma); and A172 (glioma) cells. Human skin fibroblast cells (HFF-1) were also assessed. […] 72 hours post-treatment, cell viability was assessed using the Alamar Blue method (http://www.bio-rad-antibodies.com/measuring-cytotoxicity-proliferation-spectrophotometry-fluorescence-alamarBlue.html). […] Conversion of Alamar Blue was measured with a plate reader (SpectraMax M3; Molecular Devices) by fluorescence (excitation wavelength: 555 nm; emission wavelength: 585 nm; cutoff 570 nm; autogain). […]

[1] = test system: Pseudomonas aeruginosa PAO1; experiment: Antibacterial bioassay (MIC), Pseudomonas aeruginosa; assay type: cell-based; conditions: CLSI
Method: as §1, with “After the seeded overlay solidified, 6 mm paper disks were spotted with 10 μL of a dilution series (200, 100, 50, 25, 12.5, 6.25 μM in water) of pantaphos and applied to the plates that were then incubated at 37° C. for 24 hours. Phosphonate-specific activity was queried by comparing sensitivity to that of 200 μM kanamycin and 200 μM fosfomycin.” left out

CT26 (colon carcinoma) = experiment: Cytotoxicity profiling (Alamar Blue), CT26; assay type: cell-based
Method: (§4) FIG. 8. Cytotoxicity of pantaphos across various cancer cell lines. Assays were conducted as described (mBio. 2021 Feb. 2; 12(1):e03402-20), using the Alamar Blue method with 72-hour treatment using Raptinal ([…]) as Dead cell control; n=3. Cell seeding densities: CT26 (colon carcinoma) 2000 c/w; HOS (osteosarcoma) 2500 c/w; ES-2 (ovarian carcinoma), HCT-116 (colorectal carcinoma), A-549 (lung carcinoma), A-172 (glioblastoma), D54 (glioblastoma), U87 (glioblastoma), T98G (glioblastoma), SK-ML-28 (melanoma), MCF-7 (breast cancer), AM38 (glioblastoma) and MDA-MB-231 (breast cancer) 3000 c/w; U118MG (malignant glioma) 4000 c/w; HepG2 (liver cancer) 8000 c/w. c/w=cells per well. IC50 and Emax values shown in Table 6 were extracted from the raw data plotted in FIG. 8.
(§5) Cell culture cytotoxicity screening. The compounds were evaluated for their ability to kill cancer cell lines in culture, using HOS (osteosarcoma); ES-2 (ovarian cancer); HCT 116 (colon cancer); A549 (lung carcinoma); and A172 (glioma) cells. Human skin fibroblast cells (HFF-1) were also assessed. Cells were seeded (3000 cells well^−1 for ES-2, HCT 116, A549 and A172; 4000 cells well^−1 for HFF-1 and 2500 cells well^−1 for HOS) in a 96-well plate and allowed to attach overnight. Cells were treated with pantaphos in water. The concentrations of the tested compounds were 5 nM to 100 μM (1% water final; 100 μl well^−1). Raptinal (50 μM) was used as a dead control. On each plate, five technical replicates per compound were performed. 72 hours post-treatment, cell viability was assessed using the Alamar Blue method (http://www.bio-rad-antibodies.com/measuring-cytotoxicity-proliferation-spectrophotometry-fluorescence-alamarBlue.html). […] Conversion of Alamar Blue was measured with a plate reader (SpectraMax M3; Molecular Devices) by fluorescence (excitation wavelength: 555 nm; emission wavelength: 585 nm; cutoff 570 nm; autogain). Percentage death was determined by normalizing to water-treated cells and Raptinal-treated cells. […]

[2] = test system: Enterococcus faecalis ATCC 19433; experiment: Antibacterial bioassay (MIC), Enterococcus faecalis; assay type: cell-based; conditions: ATCC19433, Mueller-Hinton 2 medium, CLSI, read-out: MIC, Rich medium
Method: as §1, with “After the seeded overlay solidified, 6 mm paper disks were spotted with 10 μL of a dilution series (200, 100, 50, 25, 12.5, 6.25 μM in water) of pantaphos and applied to the plates that were then incubated at 37° C. for 24 hours. Phosphonate-specific activity was queried by comparing sensitivity to that of 200 μM kanamycin and 200 μM fosfomycin.” left out

[3] = test system: U118MG (malignant glioma); experiment: Cytotoxicity profiling (Alamar Blue), U118MG; assay type: cell-based; conditions: Homo sapiens, U-118-MG, 72-hour treatment
Method: as §2, §3

[4] = test system: Acinetobacter baumannii ATCC 19606; experiment: Antibacterial bioassay (MIC), Acinetobacter baumannii; assay type: cell-based; conditions: CLSI
Method: as §1, with “After the seeded overlay solidified, 6 mm paper disks were spotted with 10 μL of a dilution series (200, 100, 50, 25, 12.5, 6.25 μM in water) of pantaphos and applied to the plates that were then incubated at 37° C. for 24 hours. Phosphonate-specific activity was queried by comparing sensitivity to that of 200 μM kanamycin and 200 μM fosfomycin.” left out

D54 (glioblastoma) = experiment: Cytotoxicity profiling (Alamar Blue), D54; assay type: cell-based; conditions: Homo sapiens, 72-hour treatment
Method: as §2, §3

[5] = test system: HFF-1 (human fibroblast cells); experiment: Cell culture cytotoxicity screening (Alamar Blue), HFF-1; assay type: cell-based; conditions: HFF-1, Alamar Blue, 72 hours
Method: Cell culture cytotoxicity screening. The compounds were evaluated for their ability to kill cancer cell lines in culture, using HOS (osteosarcoma); ES-2 (ovarian cancer); HCT 116 (colon cancer); A549 (lung carcinoma); and A172 (glioma) cells. Human skin fibroblast cells (HFF-1) were also assessed. Cells were seeded (3000 cells well^−1 for ES-2, HCT 116, A549 and A172; 4000 cells well^−1 for HFF-1 and 2500 cells well^−1 for HOS) in a 96-well plate and allowed to attach overnight. Cells were treated with pantaphos in water. The concentrations of the tested compounds were 5 nM to 100 μM (1% water final; 100 μl well^−1). Raptinal (50 μM) was used as a dead control. On each plate, five technical replicates per compound were performed. 72 hours post-treatment, cell viability was assessed using the Alamar Blue method (http://www.bio-rad-antibodies.com/measuring-cytotoxicity-proliferation-spectrophotometry-fluorescence-alamarBlue.html). Alamar Blue solution (10 μl of 440 μM resazurin in sterile 1×PBS) was added to each well, and the plate was incubated for 3-4 hrs. Conversion of Alamar Blue was measured with a plate reader (SpectraMax M3; Molecular Devices) by fluorescence (excitation wavelength: 555 nm; emission wavelength: 585 nm; cutoff 570 nm; autogain). Percentage death was determined by normalizing to water-treated cells and Raptinal-treated cells. […]

AM38 (glioblastoma) = experiment: Cytotoxicity profiling (Alamar Blue), AM38; assay type: cell-based, human
Method: as §4, §5

U87 (glioblastoma) = experiment: Cytotoxicity profiling (Alamar Blue), U87; assay type: cell-based; conditions: Homo sapiens, 72-hour treatment
Method: as §2, §3

MCF-7 (breast cancer) = experiment: Cytotoxicity profiling (Alamar Blue), MCF-7; assay type: cell-based, human
Method: as §4, §5

HepG2 (liver cancer) = experiment: Cytotoxicity profiling (Alamar Blue), HepG2; assay type: cell-based, human
Method: as §4, §5

With `O=C(O)/C=C(\C(=O)O)C(O)P(=O)(O)O` (centres unmarked) [pantaphos, 2-(hydroxy(phosphono)methyl)maleate] the MIC (Escherichia coli WM6242; +IPTG, Mueller-Hinton 2 medium, read-out: MIC, Rich medium) was over 200 µM, the MIC (Escherichia coli WM6242; +IPTG, glucose-MOPS minimal medium, read-out: MIC, Minimal medium) was over 200 µM and the MIC (Escherichia coli WM6242; Escherichia coli, WM6242, −IPTG, Mueller-Hinton 2 medium, read-out: MIC, Rich medium) was over 200 µM. The MIC (Escherichia coli WM6242; Escherichia coli, WM6242, −IPTG, glucose-MOPS minimal medium, read-out: MIC, Minimal medium) was over 200 µM, the “sensitivity of the strain to pantaphos, in words” value (Escherichia coli WM6242; with or without IPTG induction) was “insensitive” and the IC50 (T98G (glioblastoma); Homo sapiens, T98G, Alamar Blue, 72-hour treatment (Table 6)) was over 100 µM. The “sensitivity of the cell line to pantaphos, in words” value (T98G (glioblastoma); glioblastoma cell line printed as TG98) was “resistant”, the MIC ([1]; Mueller-Hinton 2 medium, read-out: MIC, Rich medium) was over 200 µM and the MIC ([1]; glucose-MOPS minimal medium, read-out: MIC, Minimal medium) was over 200 µM. For the same compound, the “sensitivity of the cell line to the compound, in words” value (CT26 (colon carcinoma); CT26) was “sensitive”, the IC50 (CT26 (colon carcinoma); CT26, Alamar Blue, 72-hour treatment (Table 6)) was 3.38 ± 0.09 µM and the Emax (CT26 (colon carcinoma); Mus musculus, CT26, Alamar Blue, 72-hour treatment) was 81 to 92%. The MIC [2] was over 200 µM, the Emax [3] was 38 to 45% and the MIC ([4]; ATCC19606, Mueller-Hinton 2 medium, read-out: MIC, Rich medium) was over 200 µM. For the same compound, the MIC ([4]; ATCC19606, glucose-MOPS minimal medium, read-out: MIC, Minimal medium) was over 200 µM, the Emax (D54 (glioblastoma)) was 46 to 58% and the IC50 [5] was 6.69 ± 0.29 µM. For the same compound, the Emax ([5]; read-out: Emax = percentage cell death (converted)) was 85%, the “sensitivity of the cell line to the compound, in words” value (AM38 (glioblastoma); AM38) was “sensitive” and the Emax (AM38 (glioblastoma); Homo sapiens, AM-38, AM38, Alamar Blue, 72-hour treatment) was 74 to 78%. The IC50 (AM38 (glioblastoma); Homo sapiens, AM-38, AM38, Alamar Blue, 72-hour treatment (Table 6)) was 3.97 ± 1.01 µM, the Emax (U87 (glioblastoma)) was 38 to 48% and the Emax (MCF-7 (breast cancer); Homo sapiens, MCF7, MCF-7, Alamar Blue, 72-hour treatment) was 90 to 92%. The IC50 (MCF-7 (breast cancer); Homo sapiens, MCF7, MCF-7, Alamar Blue, 72-hour treatment (Table 6)) was 2.88 ± 6.28 µM, the “sensitivity of the cell line to the compound, in words” value (MCF-7 (breast cancer); MCF-7) was “sensitive” and the “sensitivity of the cell line to the compound, in words” value (HepG2 (liver cancer); HepG2) was “sensitive”. The Emax (HepG2 (liver cancer); Homo sapiens, HepG2, Alamar Blue, 72-hour treatment) was 71 to 77% and the IC50 (HepG2 (liver cancer); Homo sapiens, HepG2, Alamar Blue, 72-hour treatment (Table 6)) was 4.22 ± 0.57 µM.
